Values joined by “and” are separate entries in the source; they are usually repeats but may differ in a detail not shown here. Equal values may be shown once.
Molecular target: 5-hydroxytryptamine receptor 4 (Homo sapiens, UniProt Q13639)
Sequence (Q13639 whole entry): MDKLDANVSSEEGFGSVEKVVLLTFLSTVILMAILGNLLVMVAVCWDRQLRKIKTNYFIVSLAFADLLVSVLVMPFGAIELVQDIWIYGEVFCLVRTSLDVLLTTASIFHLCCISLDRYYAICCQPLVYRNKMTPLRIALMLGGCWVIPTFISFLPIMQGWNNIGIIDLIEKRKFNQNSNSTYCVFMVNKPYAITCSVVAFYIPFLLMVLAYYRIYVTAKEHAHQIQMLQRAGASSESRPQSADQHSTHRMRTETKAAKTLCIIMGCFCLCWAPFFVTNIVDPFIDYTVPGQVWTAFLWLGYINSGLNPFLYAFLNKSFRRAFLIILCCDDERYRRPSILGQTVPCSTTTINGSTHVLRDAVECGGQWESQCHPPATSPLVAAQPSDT

Row | SMILES | Ki
1 | COc1ccc2[nH]cc(C=NN=C(N)NCCCCO)c2c1 [SDZ-HTF-919] | 15.8 nM and 10 nM and 25.1 nM
2 | CCCCN1CCC(COC(=O)c2cc(Cl)c(N)c3c2OCCO3)CC1 [CAS_121881] | 0.06 nM and 0.03 nM
3 | COc1ccc2[nH]cc(CCN)c2c1 [tryptamine, 5-Methoxy] | 794 nM
4 | Cn1cc(C(=O)OCC2CCN(CCNS(C)(=O)=O)CC2)c2ccccc21 [GR 113808] | 0.31 nM and 0.5 nM
5 | CCOc1cc(N)c(Cl)cc1C(=O)NCC1CN(Cc2ccc(F)cc2)CCO1 (stereo not given) [SMR000469200] | 200 nM and 631 nM and 126 nM

Reference: BindingDB's records for doi:10.1046/j.1471-4159.2000.740478.x (Janssen Research Foundation, 2000)
